Test results reported in patent US20260000656A1, “ANTIFUNGAL AGENTS WITH ENHANCED ACTIVITY IN ACIDIC PH” (Scynexis, Inc., priority 2017, published 2026).
Converted amounts (≈) assume the structure as drawn. Where two headings read alike, the source gives them in different places. Numbered stars: 1 amine (or outer) side, 2 acyl side, 3 side chain; on linkers, the order of the positions; unused ones are H or OH. Bridge positions count the residues as written; N and C are the ends. Square brackets hold non-standard residues; d marks the D form. Peptide text beside a SMILES is read from it. * marks the point of attachment. hTyr(3S-OH,4S-OH,3'-OSO3H) = N[C@H](C(=O)O)[C@H](O)[C@@H](O)c1ccc(O)c(OS(=O)(=O)O)c1; Orn(4R-OH,5R-OH) = O=C([C@H](C[C@@H](O)[C@@H](O)N[*:3])N[*:1])[*:2]; Pro(3S-OH,4S-Me) = C[C@H]1CN[C@H](C(=O)O)[C@H]1O; X1 = CCCCCOc1ccc(-c2cc(-c3ccc(C(=O)*)cc3)no2)cc1; Gln(3R-OH) = NC(=O)C[C@@H](O)[C@H](N)C(=O)O; Hyp = O=C(O)[C@@H]1C[C@@H](O)CN1

System: C. albicans isolates
Assay: Broth microdilution susceptibility (CLSI M27-A3) at different medium pH
Assay type: cell-based, Candida albicans
Details: for MIC range: 50% inhibition, 10 vaginal isolates; for MIC50 / MIC90 / MIC: Candida albicans, 24 h
Experimental: Ten strains each of C. glabrata and C. albicans vaginal isolates were tested. The strains were obtained from recent clinical trial patients with vulvovaginal candidiasis (VVC) prior to treatment. Candida strains were obtained from the Mycology Reference Library (MRL) at Case Western Reserve University School of Medicine, Ohio, United States.
Susceptibility testing was performed using a broth microdilution method, according to CLSI M27-A3 guidelines (CLSI. 2008. Reference Method for Broth Dilution Antifungal Susceptibility Testing of Yeasts; Approved Standard—Third Edition. Clinical and Laboratory Standards Institute, CLSI document M27-A3). Antifungals and concentrations tested were SCY-078 and micafungin (both at concentrations within the range of 0.015 to 8 μg/ml) and fluconazole (at concentrations within the range of 0.125 to 64 μg/ml). A 0.1-ml C. albicans and C. glabrata inoculum of 0.5-2.5×10^3 blastospores/ml in RPMI 1640 medium was added to each microdilution well. ATCC strains of Candida parapsilosis and Candida krusei QC isolates were also included concurrently to ensure quality control. Antifungal susceptibility testing was carried out for each isolate in RPMI 1640 at pH 7 (to mimic RPMI medium used in testing the susceptibility of yeast by the CLSI M-27A3 document), pH 5.7, and pH 4.5 (to mimic the pH of the vaginal cavity) by adjusting the pH of the media using NaOH or HCl. […] Agents Chemother., 43: 1383-1386 (1999).
[…] SCY-078 powder was manufactured by Avista, Laboratories, NC. Micafungin and fluconazole were sourced from LGM Pharma.

SMILES: CCCCCOc1ccc(-c2cc(-c3ccc(C(=O)N[C@H]4C[C@@H](O)[C@@H](O)NC(=O)[C@@H]5[C@@H](O)[C@@H](C)CN5C(=O)[C@H]([C@H](O)CC(N)=O)NC(=O)[C@H]([C@H](O)[C@@H](O)c5ccc(O)c(OS(=O)(=O)O)c5)NC(=O)[C@@H]5C[C@@H](O)CN5C(=O)[C@H]([C@@H](C)O)NC4=O)cc3)no2)cc1 [Micafungin, reference compound] (X1-[Orn(4R-OH,5R-OH)]T[Hyp][hTyr(3S-OH,4S-OH,3'-OSO3H)][Gln(3R-OH)][Pro(3S-OH,4S-Me)]; lactam 1-C)
- MIC range (pH 4.5, 24 h): 0.25 to 0.5 µg/mL
- MIC range (pH 5.72, 24 h): 0.063 to 1 µg/mL
- MIC range (pH 7.0, 24 h): 0.25 µg/mL (≈ 0.197 µM)
- MIC50 (pH 4.5): 0.5 µg/mL (≈ 0.394 µM)
- MIC90 (pH 4.5): 0.5 µg/mL (≈ 0.394 µM)
- MIC (pH 4.5, read-out: MIC (50% inhibition), C. albicans MRL 34366, pH 4.5, 24 hours): 0.5 µg/mL (≈ 0.394 µM)
- MIC (pH 4.5, read-out: MIC (50% inhibition), C. albicans MRL 34367, pH 4.5, 24 hours): 0.5 µg/mL (≈ 0.394 µM)
- MIC (pH 4.5, read-out: MIC (50% inhibition), C. albicans MRL 34372, pH 4.5, 24 hours): 0.5 µg/mL (≈ 0.394 µM)
- MIC (pH 4.5, read-out: MIC (50% inhibition), C. albicans MRL 34373, pH 4.5, 24 hours): 0.5 µg/mL (≈ 0.394 µM)
- MIC (pH 4.5, read-out: MIC (50% inhibition), C. albicans MRL 34374, pH 4.5, 24 hours): 0.5 µg/mL (≈ 0.394 µM)
- MIC (pH 4.5, read-out: MIC (50% inhibition), C. albicans MRL 34385, pH 4.5, 24 hours): 0.5 µg/mL (≈ 0.394 µM)
- MIC (pH 4.5, read-out: MIC (50% inhibition), C. albicans MRL 34389, pH 4.5, 24 hours): 0.5 µg/mL (≈ 0.394 µM)
- MIC (pH 4.5, read-out: MIC (50% inhibition), C. albicans MRL 34399, pH 4.5, 24 hours): 0.5 µg/mL (≈ 0.394 µM)
- MIC (pH 4.5, read-out: MIC (50% inhibition), C. albicans MRL 34408, pH 4.5, 24 hours): 0.25 µg/mL (≈ 0.197 µM)
- MIC (pH 4.5, read-out: MIC (50% inhibition), C. albicans MRL 34449, pH 4.5, 24 hours): 0.5 µg/mL (≈ 0.394 µM)
- MIC50 (pH 5.72): 1 µg/mL (≈ 0.787 µM)
- MIC90 (pH 5.72): 1 µg/mL (≈ 0.787 µM)
- MIC (pH 5.72, read-out: MIC (50% inhibition), C. albicans MRL 34366, pH 5.72, 24 hours): 0.5 µg/mL (≈ 0.394 µM)
- MIC (pH 5.72, read-out: MIC (50% inhibition), C. albicans MRL 34367, pH 5.72, 24 hours): 0.5 µg/mL (≈ 0.394 µM)
- MIC (pH 5.72, read-out: MIC (50% inhibition), C. albicans MRL 34372, pH 5.72, 24 hours): 1 µg/mL (≈ 0.787 µM)
- MIC (pH 5.72, read-out: MIC (50% inhibition), C. albicans MRL 34373, pH 5.72, 24 hours): 1 µg/mL (≈ 0.787 µM)
- MIC (pH 5.72, read-out: MIC (50% inhibition), C. albicans MRL 34374, pH 5.72, 24 hours): 1 µg/mL (≈ 0.787 µM)
- MIC (pH 5.72, read-out: MIC (50% inhibition), C. albicans MRL 34385, pH 5.72, 24 hours): 1 µg/mL (≈ 0.787 µM)
- MIC (pH 5.72, read-out: MIC (50% inhibition), C. albicans MRL 34389, pH 5.72, 24 hours): 1 µg/mL (≈ 0.787 µM)
- MIC (pH 5.72, read-out: MIC (50% inhibition), C. albicans MRL 34399, pH 5.72, 24 hours): 1 µg/mL (≈ 0.787 µM)
- MIC (pH 5.72, read-out: MIC (50% inhibition), C. albicans MRL 34408, pH 5.72, 24 hours): 0.063 µg/mL (≈ 0.0496 µM)
- MIC (pH 5.72, read-out: MIC (50% inhibition), C. albicans MRL 34449, pH 5.72, 24 hours): 0.25 µg/mL (≈ 0.197 µM)
- MIC50 (pH 7): 0.25 µg/mL (≈ 0.197 µM)
- MIC90 (pH 7): 0.25 µg/mL (≈ 0.197 µM)
- MIC (pH 7, read-out: MIC (50% inhibition), C. albicans MRL 34366, pH 7.0, 24 hours): 0.25 µg/mL (≈ 0.197 µM)
- MIC (pH 7, read-out: MIC (50% inhibition), C. albicans MRL 34367, pH 7.0, 24 hours): 0.25 µg/mL (≈ 0.197 µM)
- MIC (pH 7, read-out: MIC (50% inhibition), C. albicans MRL 34372, pH 7.0, 24 hours): 0.25 µg/mL (≈ 0.197 µM)
- MIC (pH 7, read-out: MIC (50% inhibition), C. albicans MRL 34373, pH 7.0, 24 hours): 0.25 µg/mL (≈ 0.197 µM)
- MIC (pH 7, read-out: MIC (50% inhibition), C. albicans MRL 34374, pH 7.0, 24 hours): 0.25 µg/mL (≈ 0.197 µM)
- MIC (pH 7, read-out: MIC (50% inhibition), C. albicans MRL 34385, pH 7.0, 24 hours): 0.25 µg/mL (≈ 0.197 µM)
- MIC (pH 7, read-out: MIC (50% inhibition), C. albicans MRL 34389, pH 7.0, 24 hours): 0.25 µg/mL (≈ 0.197 µM)
- MIC (pH 7, read-out: MIC (50% inhibition), C. albicans MRL 34399, pH 7.0, 24 hours): 0.25 µg/mL (≈ 0.197 µM)
- MIC (pH 7, read-out: MIC (50% inhibition), C. albicans MRL 34408, pH 7.0, 24 hours): 0.25 µg/mL (≈ 0.197 µM)
- MIC (pH 7, read-out: MIC (50% inhibition), C. albicans MRL 34449, pH 7.0, 24 hours): 0.25 µg/mL (≈ 0.197 µM)
